One data set has as its target T1, human α7 nAChR subtype (Homo sapiens, UniProt P36544).
T1 construct: expressed in transfected cells; host or cells: Xenopus laevis oocytes injected with mRNA
In words: Two-electrode voltage clamp electrophysiology on Xenopus laevis oocytes expressing the α7 nAChR. The format is cell-based. The conditions noted are these: for IC50: antagonistic activity, TEVC, value (95% CI), 100 µM ACh, 45 s preincubation, Figures 5 and 7. The source says: The emerging cyclic imines toxins (CiTXs) of global distribution across coastal environments that are produced by dinoflagellates move fast up the human food chain through shellfish. The CiTX family includes 44 compounds: 7 gymnodimines (A-E, 12-methylgymnodimine and 16-desmethyl gymnodimine D), 16 spirolides (A-D, G-I, 13-desmethyl spirolide-C, 27-Hydroxy-13-desmethyl spirolide-C, 13,19-didesmethyl spirolide-C, 20-hydroxy-13,19-didesmethyl spirolide- C, 27-hydroxy-13,19-spirolide-C, 27-Oxo-13,19-didesmethyl spirolide-C, 13-desmethyl spirolide-D, 20-hydroxy-13,19-didesmethyl spirolide-D and 20-methyl spirolide-G), 8 pinnatoxins (A-H), 3 pteriatoxins (A-C), 6 prorocentrolides (A-B, 4- hydroxyprorocentrolide, 9,51-dihydro prorocentrolide, 30-sulfate prorocentrolide and 14-O-acetyl-4-hydroxyprorocentrolide), 1 spiroprorocentrimine, 2 portimines (A and B), and 1 kabirimine, (Aráoz et al. (2020) Cyclic imine toxins survey in coastal european shellfish samples: Bioaccumulation and mode of action of 28-O-palmitoyl ester of pinnatoxin-G. First report of portimine-A bioaccumulation. Harmful Algae, 98 [1]). The spiroimine moiety is the major feature characterizing cyclic imine toxins. The exception to this rule is prorocentrolides in which a hexahydroisoquinoline group replaces the spiroimine motif, (Torigoe et al. (1988) Prorocentrolide, a toxic nitrogenous macrocycle from a marine dinoflagellate, Prorocentrum-lima. Journal of the American Chemical Society, 110:7876-7877 [2]). Portimines display a 5-membered cyclic imine ring; gymnodimines, prorocentrolides, spiroprorocentrimines and kabirimine present a 6-membered imine ring, while spirolides, pinnatoxins and pteriatoxins display a 7-membered imine ring. Cyclic imine toxins are fast acting neurotoxins that, when administered intraperitoneally or by gavage at lethal doses, kill mice by respiratory arrest within minutes following blockade of neuromuscular nicotinic acetylcholine receptors (nAChR). The mode of action of several cyclic imines on nAChRs has been characterized, namely: gymnodimine-A, 13- desmethyl spirolide- C, 13,19-didesmethyl spirolide-C, 20-methyl spirolide-G, pinnatoxin-A, pinnatoxin-G, prorocentrolide-A and portimine, (Lamoise et al. (2017) Physico-chemical and functional characterization of portimine purified from Vulcanodinium rugosum strain IFR-VRU-01. In "Marine and Fresh-Water Harmful Algae". Proceedings of the 17th International Conference on Harmful Algae (Proença, L.A.O. and Hallegraeff, G. eds) pp. 126-129 ISSHA and IOC/UNESCO, Florianapolis; Molgó et al. (2017) Cyclic imine toxins from dinoflagellates: a growing family of potent antagonists of the nicotinic acetylcholine receptors. Journal of Neurochemistry, 142:41-51 [4]). They are potent antagonists of muscular and neuronal nicotinic acetylcholine receptors with pinnatoxin-A displaying picomolar affinities towards the α7 nicotinic acetylcholine receptor subtype (Aráoz et al. (2011) Total synthesis of pinnatoxins A and G and revision of the mode of action of pinnatoxin A. Journal of the American Chemical Society 133(27):10499-10511 [5]). In contrast, prorocentrolide and portimine show micromolar affinities towards the α7 nicotinic acetylcholine receptor subtype (Lamoise et al. (2017), Stivala et al. (2015) Synthesis and biology of cyclic imine toxins, an emerging class of potent, globally distributed marine toxins. Natural Product Reports, 32(3):411-435 [6]) (Table1). Table 1. Antagonistic activity of CiTX (Two-Electrodes Voltage Clamp electrophysiology).
• Figure 1 represents the chemical structure of ingrilimine according to compound (Illa) formula. • Figure 2 represents the cytotoxic activity of ingrilimine. A2780 ovarian and HT29 colorectal carcinoma cells were grown in RPMI 1640 supplemented with 10% fetal calf serum (FCS) and 1% glutamine. […]
(In general: Two-electrode voltage clamp holds a large cell at a set potential and records current.)

For a further data set, the system named is cancer cell lines. In words: Cytotoxic activity of CiTX, comparison of orders of magnitude. The format is cell-based. The note with it: this work. The protocol:
Cell viability. […] The cell viability assay was performed using portimine-A as a positive control (Table 4). […] Table 4. Cytotoxic activity of portimine-A and ingrilimine

Data set [1] addresses muscle (α1)2βγδ nAChR subtype (Torpedo marmorata, UniProt P02711+Q6S3H8+Q6S3H9). In words: Two-electrode voltage clamp electrophysiology, antagonistic activity on Xenopus laevis oocytes having incorporated Torpedo muscle-type nAChR. It is filed as cell-based. The conditions noted are these: TEVC, value (95% CI), toxin purified by the applicant, Figure 5, read-out: nAChR subtype (nM; 95% CI) α12β1γδ (Torpedo). The source says:
The emerging cyclic imines toxins (CiTXs) of global distribution across coastal environments that are produced by dinoflagellates move fast up the human food chain through shellfish. The CiTX family includes 44 compounds: 7 gymnodimines (A-E, 12-methylgymnodimine and 16-desmethyl gymnodimine D), 16 spirolides (A-D, G-I, 13-desmethyl spirolide-C, 27-Hydroxy-13-desmethyl spirolide-C, 13,19-didesmethyl spirolide-C, 20-hydroxy-13,19-didesmethyl spirolide- C, 27-hydroxy-13,19-spirolide-C, 27-Oxo-13,19-didesmethyl spirolide-C, 13-desmethyl spirolide-D, 20-hydroxy-13,19-didesmethyl spirolide-D and 20-methyl spirolide-G), 8 pinnatoxins (A-H), 3 pteriatoxins (A-C), 6 prorocentrolides (A-B, 4- hydroxyprorocentrolide, 9,51-dihydro prorocentrolide, 30-sulfate prorocentrolide and 14-O-acetyl-4-hydroxyprorocentrolide), 1 spiroprorocentrimine, 2 portimines (A and B), and 1 kabirimine, (Aráoz et al. (2020) Cyclic imine toxins survey in coastal european shellfish samples: Bioaccumulation and mode of action of 28-O-palmitoyl ester of pinnatoxin-G. First report of portimine-A bioaccumulation. Harmful Algae, 98 [1]). The spiroimine moiety is the major feature characterizing cyclic imine toxins. […]

A further data set relates to HCT116 cells. The data set is described as follows: JC-1 mitochondrial membrane potential assay (flow cytometry). It is filed as cell-based, human. On the technique in general: Flow cytometry measures light scatter and fluorescence of single cells or particles in a stream.

“And” between values parts separate entries of the source, which are not always exact repeats. Identical values can stand only once. Like-named read-outs stand apart in the source and are kept apart here.

T1 sequence (P36544 23-502): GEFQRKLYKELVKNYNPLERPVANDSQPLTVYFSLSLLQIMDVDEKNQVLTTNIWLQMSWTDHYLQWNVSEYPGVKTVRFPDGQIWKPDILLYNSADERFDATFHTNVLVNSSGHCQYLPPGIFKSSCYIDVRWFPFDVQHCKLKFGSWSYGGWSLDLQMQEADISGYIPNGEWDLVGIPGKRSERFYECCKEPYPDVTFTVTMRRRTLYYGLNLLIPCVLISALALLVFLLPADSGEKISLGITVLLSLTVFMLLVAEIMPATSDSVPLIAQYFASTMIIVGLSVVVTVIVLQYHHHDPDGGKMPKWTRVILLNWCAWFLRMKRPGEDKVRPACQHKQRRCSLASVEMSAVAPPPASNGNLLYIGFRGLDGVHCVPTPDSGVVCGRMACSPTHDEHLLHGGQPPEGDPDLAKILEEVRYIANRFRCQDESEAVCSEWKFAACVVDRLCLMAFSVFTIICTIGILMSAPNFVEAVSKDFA
Sequence of muscle (α1)2βγδ nAChR subtype (P02711 25-461): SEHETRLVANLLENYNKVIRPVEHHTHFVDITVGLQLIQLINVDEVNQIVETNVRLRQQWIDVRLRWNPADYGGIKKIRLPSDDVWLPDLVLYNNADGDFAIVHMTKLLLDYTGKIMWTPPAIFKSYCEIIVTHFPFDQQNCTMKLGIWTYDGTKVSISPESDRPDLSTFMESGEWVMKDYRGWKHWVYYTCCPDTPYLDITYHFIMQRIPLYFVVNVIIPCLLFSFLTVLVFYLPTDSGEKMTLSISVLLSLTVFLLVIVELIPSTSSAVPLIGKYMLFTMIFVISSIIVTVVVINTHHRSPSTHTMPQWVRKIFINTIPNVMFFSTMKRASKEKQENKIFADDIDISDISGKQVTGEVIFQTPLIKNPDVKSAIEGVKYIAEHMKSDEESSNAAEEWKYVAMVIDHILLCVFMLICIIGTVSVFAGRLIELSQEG
Sequence of muscle (α1)2βγδ nAChR subtype (Q6S3H9 entry or part of it): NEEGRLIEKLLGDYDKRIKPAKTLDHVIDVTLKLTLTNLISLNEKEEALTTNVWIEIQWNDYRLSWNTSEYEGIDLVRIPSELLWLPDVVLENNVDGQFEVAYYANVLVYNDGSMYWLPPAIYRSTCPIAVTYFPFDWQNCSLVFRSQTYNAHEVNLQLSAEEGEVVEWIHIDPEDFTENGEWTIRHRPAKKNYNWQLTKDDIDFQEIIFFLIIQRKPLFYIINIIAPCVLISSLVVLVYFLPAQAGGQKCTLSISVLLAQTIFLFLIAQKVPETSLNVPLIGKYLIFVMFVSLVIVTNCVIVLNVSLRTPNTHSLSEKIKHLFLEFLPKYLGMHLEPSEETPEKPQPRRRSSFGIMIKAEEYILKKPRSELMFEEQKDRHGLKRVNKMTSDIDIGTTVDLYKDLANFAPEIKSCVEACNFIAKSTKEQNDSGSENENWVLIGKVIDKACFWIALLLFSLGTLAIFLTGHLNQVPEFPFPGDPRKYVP
Sequence of muscle (α1)2βγδ nAChR subtype (Q6S3H8 entry or part of it): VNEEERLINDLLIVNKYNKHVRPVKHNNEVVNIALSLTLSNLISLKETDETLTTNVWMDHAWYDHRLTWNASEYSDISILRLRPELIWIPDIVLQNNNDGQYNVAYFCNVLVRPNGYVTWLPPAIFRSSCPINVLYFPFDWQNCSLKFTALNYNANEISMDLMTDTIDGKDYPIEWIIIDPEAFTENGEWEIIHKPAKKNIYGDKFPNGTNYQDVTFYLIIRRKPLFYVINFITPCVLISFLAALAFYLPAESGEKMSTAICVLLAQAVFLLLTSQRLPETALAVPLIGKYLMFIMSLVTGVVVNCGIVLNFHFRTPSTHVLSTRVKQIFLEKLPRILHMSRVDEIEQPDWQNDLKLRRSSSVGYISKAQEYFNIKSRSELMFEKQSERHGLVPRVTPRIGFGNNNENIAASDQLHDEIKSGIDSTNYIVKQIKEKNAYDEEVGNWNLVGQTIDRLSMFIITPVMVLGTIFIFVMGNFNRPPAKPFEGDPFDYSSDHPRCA
Sequence of muscle (α1)2βγδ nAChR subtype (Q6S3I0 entry or part of it, further chain): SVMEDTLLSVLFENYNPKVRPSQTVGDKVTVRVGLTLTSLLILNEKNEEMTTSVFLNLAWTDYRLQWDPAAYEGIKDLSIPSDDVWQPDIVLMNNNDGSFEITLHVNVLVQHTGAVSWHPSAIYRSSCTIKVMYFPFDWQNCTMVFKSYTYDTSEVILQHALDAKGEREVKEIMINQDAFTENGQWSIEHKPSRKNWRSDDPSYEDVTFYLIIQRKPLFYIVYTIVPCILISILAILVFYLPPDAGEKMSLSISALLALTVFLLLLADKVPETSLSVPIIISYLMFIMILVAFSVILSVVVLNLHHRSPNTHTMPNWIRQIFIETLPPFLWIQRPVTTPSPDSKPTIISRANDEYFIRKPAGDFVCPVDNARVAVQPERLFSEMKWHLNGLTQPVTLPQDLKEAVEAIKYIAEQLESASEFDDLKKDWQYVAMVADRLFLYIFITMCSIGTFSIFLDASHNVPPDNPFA

For the molecule `C=CC1=C[C@@H]2C[C@@H](O)[C@@H](O)/C(C)=C/C/C(C)=C/CCC3=NCCC[C@]32CC1` [Ingrilimine, ingrilimine], the “peak amplitude relative to the peak amplitude evoked by 100 µM ACh” value at human α7 nAChR subtype (agonist activity, 10 µM ingrilimine) is -25%. Besides, on human α7 nAChR subtype (micromolar concentrations, antagonist at nanomolar concentrations), the “behaviour at micromolar concentrations” value was “behaves as an agonist”. The IC50 against human α7 nAChR subtype (nAChR subtype (nM; 95% CI) α7 (human)) was 2.3 nM and 2.29 nM. Besides, the “times more potent than portimine against the human α7 nAChR subtype” value on human α7 nAChR subtype (ratio of IC50 values) is ~ 10 000 times. The “cytotoxic activities, order of magnitude” value in the data set with cancer cell lines was ~10^-8 M.
As for `C=CC1=C[C@@H]2[C@@H]3O[C@]4(CC[C@H](O4)[C@@H](C)C[C@@H](O)C3=O)C[C@H](O)C3=NCC[C@@]32CC1` [Portimine-A], the IC50 stood at 11900 nM in data set [1] and 21200 nM at human α7 nAChR subtype (read-out: nAChR subtype (nM; 95% CI) α7 (human)). Besides, the JC-1 % in the data set on HCT116 cells (1 nM, 24 h, cells with mitochondrial membrane depolarization) is reported as 5.1%; in the data set on HCT116 cells (1 nM, 48 h), 8.1%; in the data set on HCT116 cells (5 nM, 24 h), 9.2%.

Values taken from EP4624457A1, “I[…] DERIVATIVES, I[…] NEURODEGENERATIVE DISEASES” (Centre National de la Recherche Scientifique, priority 2024, dated 2025).
